Experimental data reported in PubChem BioAssay AID1259411 (Chemical Carcinogenesis Research Information System (CCRIS), 2018).
Calls of active or inactive are those of the source. No rule for the calls is given here.

Test system: rodent carcinogenicity bioassays, tumor incidence
Test: CCRIS carcinogenicity studies
How it was run: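 Archive of carcinogenicity, mutagenicity, tumor promotion and tumor inhibition results drawn from journals, NCI reports and other sources, expert-reviewed; covers 1985-2011 and is no longer updated.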

In the case of `O=C(O)C(Br)Br`, the carcinogen call (Species: Mouse, Strain/Sex: B6C3F1/Female, Route: Oral, Dose: 0, 50, 500, 1,000 mg/l in drinking water for 2 yr, Dose: 0, 50, 500, 1,000 mg/l in drinking water for 2 yr, Tumor Site: Type of Lesion: Liver: Hepatocellular adenoma (19/49; 26/50; 32/50; 35/49), Hepatocellular carcinoma (3/49, 3/50, 12/50, 8/49), Hepatoce, Tumor Site: Type of Lesion: Liver: Hepatocellular adenoma (19/49; 26/50; 32/50; 35/49), Hepatocellular carcinoma (3/49, 3/50, 12/50, 8/49), Hepatoce) is reported as “active; positive (ntp reports as clear evidence)”, the carcinogen call (Species: Mouse, Strain/Sex: B6C3F1/Male, Route: Oral, Dose: 0, 50, 500, 1,000 mg/l in drinking water for 2 yr, Dose: 0, 50, 500, 1,000 mg/l in drinking water for 2 yr, Tumor Site: Type of Lesion: Liver: Hepatocellular adenoma (18/49; 37/50; 42/50), Hepatocellular carcinoma (14/49, 9/50, 19/50, 26/50), Hepato, Tumor Site: Type of Lesion: Liver: Hepatocellular adenoma (18/49; 37/50; 42/50), Hepatocellular carcinoma (14/49, 9/50, 19/50, 26/50), Hepato) is reported as “active; positive (ntp reports as clear evidence)” and the carcinogen call (Species: Rat, Strain/Sex: F344/N/Female, Route: Oral, Dose: 0, 50, 500, 1000 mg/l in drinking water for 2 yr, Dose: 0, 50, 500, 1000 mg/l in drinking water for 2 yr, Tumor Site: Type of Lesion: All organs: Mononuclear cell leukemia (11/50, 13/50, 16/50, 22/50)) is reported as “active; positive trend (not statistically significant) (ntp reports as some evidence)”. The carcinogen call (Species: Rat, Strain/Sex: F344/N/Male, Route: Oral, Dose: 0, 50, 500, 1000 mg/l in drinking water continuous for 2 yr, Dose: 0, 50, 500, 1000 mg/l in drinking water continuous for 2 yr, Tumor Site: Type of Lesion: All organs: Malignant mesothelioma (3/50, 1/50, 0/50, 10/50), Mononuclear cell leukemia (17/50, 31/50, 24/50, 13/50)) was “active; positive (malignant mesothelioma) (ntp reports as some evidence); mononuclear ce”.
`CCOC(=O)C(C)(C)Oc1ccc(Cl)cc1` was tested, and the carcinogen call (Species: MOUSE, Strain/Sex: CD-1/MALE,FEMALE (NEONATAL) (24-28/GROUP), Route: ORAL (GAVAGE), Dose: 0, 100, 350, 500 MG/KG BW ON D 9 AND 16 OF LIFE (STUDY DURATION: 1 YR)) was “inactive; negative”, the carcinogen call (Species: Mouse, Strain/Sex: Nontransgenic rasH2/Female (15/group), Route: Oral, Dose: 0, 250 mg/kg/day (Test material solvent: 0.5% (w/w) hydroxymethylcellulose in water), daily, by gavage for 27 wk, study, Dose: 0, 250 mg/kg/day (Test material solvent: 0.5% (w/w) hydroxymethylcellulose in water), daily, by gavage for 27 wk, study) was “inactive; negative (slight increase in incidence of various neoplasms (harderian gland, lu” and the carcinogen call (Species: Mouse, Strain/Sex: Nontransgenic rasH2/Male (15/group), Route: Oral, Dose: 0, 200 mg/kg/day (Test material solvent: 0.5% (w/w) hydroxymethylcellulose in water), daily, by gavage for 27 wk, study, Dose: 0, 200 mg/kg/day (Test material solvent: 0.5% (w/w) hydroxymethylcellulose in water), daily, by gavage for 27 wk, study, Tumor Site: Type of Lesion: Liver) was “inactive; negative (hepatocellular neoplasms observed in matched study of male transgenic”. The carcinogen call (Species: RAT, Strain/Sex: F344/MALE, Route: ORAL, Dose: 0.5% IN DIET FOR UP TO 28 MO, Tumor Site: Type of Lesion: LIVER: HEPATOCELLULAR CARCINOMA) was “active; positive” and the carcinogen call (Species: RAT, Strain/Sex: SPRAGUE-DAWLEY/MALE,FEMALE, Route: ORAL, Dose: 1500, 4500, 9000 PPM IN DIET, Dose: 1500, 4500, 9000 PPM IN DIET, Tumor Site: Type of Lesion: LIVER) was “active; positive”.
With `COc1ccc([C@@H]2CC(=O)c3c(O)cc(O[C@@H]4O[C@H](CO[C@@H]5O[C@@H](C)[C@H](O)[C@@H](O)[C@H]5O)[C@@H](O)[C@H](O)[C@H]4O)cc3O2)cc1OC` the carcinogen call (Species: MOUSE, Strain/Sex: B6C3F1/FEMALE, Route: ORAL, Dose: 0, 1.25, 5% IN DIET FOR 96 WK FOLLOWED BY BASAL DIET FOR AN ADDITIONAL 8 WK (STUDY DURATION: 104 WK), Dose: 0, 1.25, 5% IN DIET FOR 96 WK FOLLOWED BY BASAL DIET FOR AN ADDITIONAL 8 WK (STUDY DURATION: 104 WK)) was “inactive; negative” and the carcinogen call (Species: MOUSE, Strain/Sex: B6C3F1/MALE, Route: ORAL, Dose: 0, 1.25, 5% IN DIET FOR 96 WK FOLLOWED BY BASAL DIET FOR AN ADDITIONAL 8 WK (STUDY DURATION: 104 WK), Dose: 0, 1.25, 5% IN DIET FOR 96 WK FOLLOWED BY BASAL DIET FOR AN ADDITIONAL 8 WK (STUDY DURATION: 104 WK)) was “inactive; negative”.
In the case of `CC1(C)[C@@H](O[C@H]2O[C@H](C(=O)O)[C@@H](O)[C@H](O)[C@H]2O[C@@H]2O[C@H](C(=O)O)[C@@H](O)[C@H](O)[C@H]2O)CC[C@]2(C)[C@H]3C(=O)C=C4[C@@H]5C[C@@](C)(C(=O)O)CC[C@]5(C)CC[C@@]4(C)[C@]3(C)CC[C@@H]12`, the carcinogen call (Species: MOUSE, Strain/Sex: B6C3F1/FEMALE, Route: ORAL, Dose: 0, 0.08, 0.15, 0.3% IN DRINKING WATER FOR 96 WK (STUDY DURATION: 110 WK), Dose: 0, 0.08, 0.15, 0.3% IN DRINKING WATER FOR 96 WK (STUDY DURATION: 110 WK)) is reported as “inactive; negative” and the carcinogen call (Species: MOUSE, Strain/Sex: B6C3F1/MALE, Route: ORAL, Dose: 0, 0.04, 0.08, 0.15% IN DRINKING WATER FOR 96 WK (STUDY DURATION: 110 WK), Dose: 0, 0.04, 0.08, 0.15% IN DRINKING WATER FOR 96 WK (STUDY DURATION: 110 WK)) is reported as “inactive; negative”.
With `NC(=O)NC1NC(=O)NC1=O` (configuration not stated) the carcinogen call (Species: RAT, Strain/Sex: F344/FEMALE, Route: ORAL, Dose: 0, 2000 PPM IN DIET FOR 106 WK (STUDY DURATION: 130 WK)) was “inactive; negative” and the carcinogen call (Species: RAT, Strain/Sex: F344/MALE, Route: ORAL, Dose: 0, 2000 PPM IN DIET FOR 106 WK (STUDY DURATION: 130 WK)) was “inactive; negative”.
`OCc1ccc2ccc3cccc4ccc1c2c34` was tested, and the carcinogen call (Species: RAT, Strain/Sex: SPRAGUE-DAWLEY/FEMALE, Route: SUBCUTANEOUS, Dose: 0, 0.2 UMOL IN 0.1 ML SESAME OIL:DMSO (9:1) 1/2 D FOR 20 DOSES (STUDY DURATION: 52 WK)) was “inactive; negative”.
`NCl` was tested, and the carcinogen call (Species: MOUSE, Strain/Sex: B6C3F1/FEMALE, Route: ORAL, Dose: 0, 50, 100, 200 PPM IN BUFFERED, CHARCOAL-FILTERED, DEIONIZED WATER FOR 104 WK (STUDY DURATION: 2 YR), Dose: 0, 50, 100, 200 PPM IN BUFFERED, CHARCOAL-FILTERED, DEIONIZED WATER FOR 104 WK (STUDY DURATION: 2 YR)) was “inactive; negative”, the carcinogen call (Species: MOUSE, Strain/Sex: B6C3F1/MALE, Route: ORAL, Dose: 0, 50, 100, 200 PPM IN BUFFERED, CHARCOAL-FILTERED, DEIONIZED WATER FOR 104 WK (STUDY DURATION: 2 YR), Dose: 0, 50, 100, 200 PPM IN BUFFERED, CHARCOAL-FILTERED, DEIONIZED WATER FOR 104 WK (STUDY DURATION: 2 YR)) was “inactive; negative” and the carcinogen call (Species: RAT, Strain/Sex: F344/MALE, Route: ORAL, Dose: 0, 50, 100, 200 PPM IN BUFFERED, CHARCOAL-FILTERED, DEIONIZED WATER FOR 103 WK (STUDY DURATION: 2 YR), Dose: 0, 50, 100, 200 PPM IN BUFFERED, CHARCOAL-FILTERED, DEIONIZED WATER FOR 103 WK (STUDY DURATION: 2 YR)) was “inactive; negative”.
In the case of `ClC(Cl)C(Cl)Cl`, the carcinogen call (Species: MOUSE, Strain/Sex: B6C3F1/FEMALE, Route: GAVAGE, Dose: 0, 142, 282 MG/KG N CORN OIL 5 D/WK FOR 78 WK (STUDY DURATION: 90 WK), Dose: 0, 142, 282 MG/KG N CORN OIL 5 D/WK FOR 78 WK (STUDY DURATION: 90 WK), Tumor Site: Type of Lesion: LIVER: HEPATOCELLULAR CARCINOMA) is reported as “active; positive”, the carcinogen call (Species: MOUSE, Strain/Sex: B6C3F1/MALE, Route: GAVAGE, Dose: 0, 142, 282 MG/KG IN CORN OIL 5 D/WK FOR 78 WK (STUDY DURATION: 90 WK), Dose: 0, 142, 282 MG/KG IN CORN OIL 5 D/WK FOR 78 WK (STUDY DURATION: 90 WK), Tumor Site: Type of Lesion: LIVER: HEPATOCELLULAR CARCINOMA) is reported as “active; positive” and the carcinogen call (Species: RAT, Strain/Sex: OSBORNE-MENDEL/FEMALE, Route: GAVAGE, Dose: 0, 43, 76 MG/KG IN CORN OIL 5 D/WK FOR 78 WK (STUDY DURATION: 110 WK), Dose: 0, 43, 76 MG/KG IN CORN OIL 5 D/WK FOR 78 WK (STUDY DURATION: 110 WK)) is reported as “inactive; negative”. The carcinogen call (Species: RAT, Strain/Sex: OSBORNE-MENDEL/MALE, Route: GAVAGE, Dose: 0, 62, 108 MG/KG IN CORN OIL 5 D/WK FOR 78 WK (STUDY DURATION: 110 WK), Dose: 0, 62, 108 MG/KG IN CORN OIL 5 D/WK FOR 78 WK (STUDY DURATION: 110 WK), Tumor Site: Type of Lesion: LIVER: NEOPLASTIC NODULE, HEPATOCELLULAR CARCINOMA) was “equivocal”.
In the case of `Cc1c(COC(=O)[C@@H]2[C@H](/C=C(\Cl)C(F)(F)F)C2(C)C)cccc1-c1ccccc1`, the carcinogen call (Species: Mouse, Strain/Sex: Swiss-Webster Derived Tac(SW)fBR/Female (50/sex/group), Route: Oral, Dose: 0, 50, 200, 500, 600 ppm in feed for 20-21 months, Dose: 0, 50, 200, 500, 600 ppm in feed for 20-21 months) is reported as “inactive; negative; purity 88.35% (98% cis- and 2% trans-isomer)”, the carcinogen call (Species: Mouse, Strain/Sex: Swiss-Webster Derived Tac(SW)fBR/Male (50/sex/group), Route: Oral, Dose: 0, 50, 200, 500, 600 ppm in feed for 20-21 months, Dose: 0, 50, 200, 500, 600 ppm in feed for 20-21 months, Tumor Site: Type of Lesion: Urinary bladder: Leiomyosarcoma (Dose related increase, 29% at 600 ppm)) is reported as “active; positive; purity 88.35% (98% cis- and 2% trans-isomer)” and the carcinogen call (Species: Rat, Strain/Sex: Sprague-Dawley/Female (50/sex/group), Route: Oral, Dose: 0, 12, 50, 100, 200 ppm in feed for 2 yr, Dose: 0, 12, 50, 100, 200 ppm in feed for 2 yr) is reported as “inactive; negative; purity 88.35% (98% cis- and 2% trans-isomer)”. The carcinogen call (Species: Rat, Strain/Sex: Sprague-Dawley/Male (60/group), Route: Oral, Dose: 0, 12, 50, 100, 200 ppm in feed for 2 yr, Dose: 0, 12, 50, 100, 200 ppm in feed for 2 yr) was “inactive; negative; purity 88.35% (98% cis- and 2% trans-isomer)”.
